Laboratory results published in patent US9242933B2 (AbbVie Deutschland GmbH & Co. KG, priority 2007, dated 2016).

Each compound was assayed against T1, human mGlu2 receptor (Homo sapiens, UniProt Q14416) (assay: FLIPR intracellular Ca2+ assay, potentiation of glutamate response in HEK293 clone expressing mGlu2 receptor, rGLAST and Galpha16). Conditions: 1 μM glutamate added ten minutes after test compound, HEK293 cells with human mGlu2, rGLAST, Galpha16, read-out: EC50 values of potentiation effect to glutamate.
T1 construct: expressed in transfected cells; host or cells: HEK293
T1 sequence (Q14416 19-872): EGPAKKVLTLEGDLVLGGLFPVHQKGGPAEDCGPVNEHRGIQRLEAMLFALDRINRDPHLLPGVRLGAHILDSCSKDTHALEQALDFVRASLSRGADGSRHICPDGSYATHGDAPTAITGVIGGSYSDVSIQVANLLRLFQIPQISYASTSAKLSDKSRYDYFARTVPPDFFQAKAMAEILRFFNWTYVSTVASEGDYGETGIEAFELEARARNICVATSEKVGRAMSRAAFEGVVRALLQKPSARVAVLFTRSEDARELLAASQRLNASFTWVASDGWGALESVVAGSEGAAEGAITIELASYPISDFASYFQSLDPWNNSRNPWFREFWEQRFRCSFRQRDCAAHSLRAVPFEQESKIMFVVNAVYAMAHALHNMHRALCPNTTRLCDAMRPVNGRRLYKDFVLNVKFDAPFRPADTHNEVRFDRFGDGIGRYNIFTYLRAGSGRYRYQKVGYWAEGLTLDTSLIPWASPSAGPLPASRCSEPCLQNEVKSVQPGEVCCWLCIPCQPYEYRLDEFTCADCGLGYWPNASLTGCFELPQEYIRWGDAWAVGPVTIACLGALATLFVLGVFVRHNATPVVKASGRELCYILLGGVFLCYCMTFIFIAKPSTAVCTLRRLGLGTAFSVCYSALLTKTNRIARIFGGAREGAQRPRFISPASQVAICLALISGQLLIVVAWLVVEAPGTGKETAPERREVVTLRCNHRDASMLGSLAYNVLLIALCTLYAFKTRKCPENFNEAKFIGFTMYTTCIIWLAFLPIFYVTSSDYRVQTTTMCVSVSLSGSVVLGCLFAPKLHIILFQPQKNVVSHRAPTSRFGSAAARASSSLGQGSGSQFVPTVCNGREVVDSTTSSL
Format: cell-based
Source text: The compounds of the present invention can be tested e.g. by evaluating intracellular Ca^2+ concentrations in cells permanently expressing human mGlu receptor, the rat glutamate transporter rGLAST and the Galpha16 subunit of the G-protein complex under standard conditions in a fluorometric imaging plate reader (FLIPR, Molecular Devices, Union City, Calif. 94587, USA) by measuring the response of the cells to a test compound in the absence of presence of glutamate. The FLIPR assay is a common functional assay to monitor native or recombinant Galphaq-coupled receptors, and native or recombinant receptors normally linked to other G-protein signalling cascades, which are coupled to calcium through co-expression of an alpha subunit of a promiscuous or chimeric G-protein. In the assay the increase of intracellular calcium is measured through a calcium-dependent fluorescent dye (e.g. Fluo-4 AM) in the FLIPR instrument.
For the purpose of the present study, a cell line permanently expressing a human mGlu receptor, such as the mGlu2 receptor, the rat glutamate transporter rGLAST and the GalphaG16 may be generated by transfection as described in the examples. For selection of a suitable cell clone and also the subsequent measurements, the selected clone the cells will be plated on suitable multiwell plates in a suitable medium (e.g. DMEM Glutamax (GIBCO #21885-025)/10% dialyzed FCS). Cells may be selected by gentamycin treatment as described in the examples. Cells will then be loaded with a suitable Ca^2+ sensitive fluorescence dye, e.g. with 2 μM Fluo-4 AM (Molecular Probes, F14201). Cells will then be washed with a suitable buffer (e.g. HEPES) and the thus treated plates will be measured in a fluorometric imaging plate reader (e.g. FLIPR, Molecular Devices, Union City, Calif. 94587, USA).
The compounds of the present invention were tested in the above-described FLIPR assay using the selected cell clone. Increased intracellular calcium levels were quantified following addition of test compound (agonism), as well as following addition of a submaximal concentration of glutamate (potentiation).
For the determination of the effect of the test compound by itself (agonism) or by increasing the response to a submaximal concentration (e.g. 1 μM) of glutamate (potentiation), the resulting signal is determined by subtraction of the background fluorescence from the maximal fluorescent peak height of the respective response. In the FLIPR instrument the compound is given to the cell and its fluorescence response quantified by the FLIPR instrument (agonism). The concentration at which the compound exerts half its maximal effect is named the ‘effective concentration 50’ or ‘EC50’. The maximal effect induced by the test substance is normalized to the maximal effect exerted by 100 μM glutamate (set at 100%).
After addition of the test compound to the plate, a submaximal concentration of glutamate (e.g. 1 μM glutamate) will be added. A potentiator enhances the response of the receptor to glutamate. The response to glutamate in the presence of test compound is quantified. The concentration at which the test compound is able to exert half its maximal potentiation effect to glutamate is named the ‘EC50’. The maximal response to the submaximal concentration of glutamate (e.g. 1 micromolar glutamate) in the presence of test compound is normalized to the maximal effect exerted by 100 micromolar glutamate (set at 100%). Least squares curve fitting with a four-parameter equation is then applied to the resulting dose-response curve to determine the resulting EC5O values (Graph Pad Prism).
For the purpose of the present study, a cell line permanently expressing the human mGlu2 receptor, the rat glutamate transporter rGLAST and the alpha subunit of G16 was generated by transfection. […]

EC50 | Compound
1000 to 10000 nM | CCCC(=O)c1ccc(NCc2ccc(CC)s2)cc1 [Example 9, 1-{4-[(5-Ethylthiophen-2-ylmethyl)amino]phenyl}butan-1-one]
1000 to 10000 nM | CCCC(=O)c1ccc(NCc2ccco2)cc1 [Example 13, 1-{4-[(Furan-2-ylmethyl)amino]phenyl}butan-1-one]
1000 to 10000 nM | CCCC(=O)c1ccc(NCc2cccnc2)cc1 [Example 16, 1-{4-[(Pyridin-3-ylmethyl)amino]phenyl}butan-1-one]
1000 to 10000 nM | CCCC(=O)c1ccc(NCc2ccc(COC(C)=O)o2)cc1 [Example 23, Acetic acid 5-[(4-butyrylphenylamino)methyl]furan-2-ylmethyl ester]
1000 to 10000 nM | CCCC(=O)c1ccc(NCc2ccc3ncccc3c2)cc1 [Example 25, 1-{4-[(Quinolin-6-ylmethyl)amino]phenyl}butan-1-one]
1000 to 10000 nM | CCCC(=O)c1ccc(NCc2ccc(-c3ccc(S(N)(=O)=O)cc3)o2)cc1 [Example 35, 4-{5-[(4-Butyrylphenylamino)methyl]furan-2-yl}benzenesulfonamide]
1000 to 10000 nM | CCCC(=O)c1ccc(NCc2cnccc2-c2cccc(Br)c2)cc1 [Example 37, 1-(4-{[4-(3-Bromophenyl)pyridin-3-ylmethyl]amino}phenyl)butan-1-one]
< 1000 nM | CCCC(=O)c1ccc(NCc2c[nH]nc2-c2cccs2)cc1 [Example 40, 1-(4-{[3-(Thiophen-2-yl)-1H-pyrazol-4-ylmethyl]amino}phenyl)butan-1-one]
< 1000 nM | CCCC(=O)c1ccc(NCc2c[nH]nc2-c2ccc(C(F)(F)F)cc2)cc1 [Example 42]
1000 to 10000 nM | CCCC(=O)c1ccc(NCc2c(-c3ccccc3)noc2C)cc1 [Example 43, 1-{4-[(5-Methyl-3-phenylisoxazol-4-ylmethyl)amino]phenyl}butan-1-one]
1000 to 10000 nM | CCCC(=O)c1ccc(NCc2cnn(-c3ccccc3)c2C)cc1 [Example 45, 1-{4-[(5-Methyl-1-phenyl-1H-pyrazol-4-ylmethyl)amino]phenyl}butan-1-one]
1000 to 10000 nM | CCCC(=O)c1ccc(NCc2csc(-c3ccccc3)n2)cc1 [Example 46, 1-{4-[(2-Phenylthiazol-4-ylmethyl)amino]phenyl}butan-1-one]
1000 to 10000 nM | CCCC(=O)c1ccc(NCc2c(C)nn(C)c2Oc2ccc(Cl)cc2)cc1 [Example 49, 1-(4-{[5-(4-Chlorophenoxy)-1,3-dimethyl-1H-pyrazol-4-ylmethyl]amino}phenyl)butan-1-one]
1000 to 10000 nM | CCCC(=O)c1ccc(NCc2c(C)nn(C)c2Oc2cccc(Cl)c2)cc1 [Example 50, 1-(4-{[5-(3-Chlorophenoxy)-1,3-dimethyl-1H-pyrazol-4-ylmethyl]amino}phenyl)butan-1-one]
1000 to 10000 nM | CCCC(=O)c1ccc(NCc2c(CSc3ccccc3)nn(C)c2Cl)cc1 [Example 52, 1-(4-{[5-Chloro-1-methyl-3-(phenylthiomethyl)-1H-pyrazol-4-ylmethyl]amino}phenyl)butan-1-one]
1000 to 10000 nM | CCCC(=O)c1ccc(NCc2c(C(F)(F)F)nn(C)c2Cl)cc1 [Example 53, 1-(4-{[5-Chloro-1-methyl-3-(trifluoromethyl)-1H-pyrazol-4-yl]methylamino}phenyl)butan-1-one]
1000 to 10000 nM | CCCC(=O)c1ccc(NCc2cnn(CC)c2C)cc1 [Example 55, 1-{4-[(1-Ethyl-5-methyl-1H-pyrazol-4-ylmethyl)amino]phenyl}butan-1-one]
1000 to 10000 nM | CCCC(=O)c1ccc(NCc2c(C)nn(-c3ccccc3)c2C)cc1 [Example 56, 1-{4-[(3,5-Dimethyl-1-phenyl-1H-pyrazol-4-ylmethyl)amino]phenyl}butan-1-one]
1000 to 10000 nM | CCCC(=O)c1ccc(NCc2ccnn2-c2ccccc2)cc1 [Example 57, 1-{4-[(2-Phenyl-2H-pyrazol-3-ylmethyl)amino]phenyl}butan-1-one]

EC50 | Compound
1000 to 10000 nM | CCCC(=O)c1ccc(NCc2c(C)nn(C(C)(C)C)c2C)cc1 [Example 58, 1-{4-[(1-tert-Butyl-3,5-dimethyl-1H-pyrazol-4-ylmethyl)amino]phenyl)butan-1-one]
1000 to 10000 nM | CCCC(=O)c1ccc(NCc2cnn(C)c2C)cc1 [Example 60, 1-{4-[(1,5-Dimethyl-1H-pyrazol-4-ylmethyl)amino]phenyl}butan-1-one]
1000 to 10000 nM | CCCC(=O)c1ccc(NCc2cn[nH]c2)cc1 [Example 68, 1-{4-[(1H-Pyrazol-4-ylmethyl)amino]phenyl}butan-1-one]
1000 to 10000 nM | CCCC(=O)c1ccc(NCc2cnn(CCC)c2C)cc1 [Example 71]
< 1000 nM | CCCC(=O)c1ccc(NCc2cnn(C)c2-c2ccccc2)cc1 [Example 73]
1000 to 10000 nM | CCCC(=O)c1ccc(NCc2cnn(C(C)C)c2)cc1 [Example 75, 1-{4-[(1-Isopropyl-1H-pyrazol-4-ylmethyl)amino]phenyl}butan-1-one]
< 1000 nM | CCCC(=O)c1ccc(NCc2c[nH]nc2-c2ccc(O)cc2)cc1 [Example 76, 1-(4-{[3-(4-Hydroxyphenyl)-1H-pyrazol-4-ylmethyl]amino}phenyl)butan-1-one]
< 1000 nM | CCCC(=O)c1ccc(NCc2c[nH]nc2C(C)(C)C)cc1 [Example 77, 1-{4-[(3-tert-Butyl-1H-pyrazol-4-ylmethyl)amino]phenyl}butan-1-one]
1000 to 10000 nM | O=C1CCc2cc(NCc3c[nH]nc3-c3ccc(C(F)(F)F)cc3)ccc21 [Example 81, 5-{[3-(4-Trifluoromethylphenyl)-1H-pyrazol-4-ylmethyl]-amino}-indan-1-one]
< 1000 nM | COc1ccccc1Oc1ccc(NCc2c[nH]nc2-c2ccc(C(F)(F)F)cc2)cc1 [Example 83, [4-(2-Methoxy-phenoxy)-phenyl]-[3-(4-trifluoromethylphenyl)-1H-pyrazol-4-ylmethyl]-amine]
1000 to 10000 nM | COc1cc(NCc2c[nH]nc2C(C)(C)C)cc(OC)c1 [Example 116, (3-tert-Butyl-1H-pyrazol-4-ylmethyl)-(3,5-dimethoxyphenyl)-amine]
1000 to 10000 nM | CC(C)(C)c1n[nH]cc1CNc1ccc2c(c1)OCO2 [Example 117, Benzo[1,3]dioxol-5-yl-(3-tert-butyl-1H-pyrazol-4-ylmethyl)-amine]
1000 to 10000 nM | CN(C)S(=O)(=O)c1ccc(NCc2c[nH]nc2-c2ccc(C(F)(F)F)cc2)cc1 [Example 169, N,N-Dimethyl-4-{[3-(4-trifluoromethyl-phenyl)-1H-pyrazol-4-ylmethyl]-amino}-benzenesulfonamide]
< 1000 nM | CCCC(=O)c1ccc(NCc2c[nH]nc2-c2ccc(OC)cc2)cc1 [Example 209, 1-(4-{[3-(4-Methoxy-phenyl)-1H-pyrazol-4-ylmethyl]-amino}-phenyl)-butan-1-one]
< 1000 nM | CCCC(=O)c1ccc(NCc2c[nH]nc2-c2ccccc2)cc1 [Example 210, 1-{4-[(3-Phenyl-1H-pyrazol-4-ylmethyl)-amino]-phenyl}-butan-1-one]
1000 to 10000 nM | CCCC(=O)c1ccc(NCc2c(C)nn(C)c2C)cc1 [Example 211, 1-{4-[(1,3,5-Trimethyl-1H-pyrazol-4-ylmethyl)-amino]-phenyl}-butan-1-one]
< 1000 nM | CCCC(=O)c1ccc(NCc2c[nH]nc2-c2ccc(C)cc2)cc1 [Example 212, 1-{4-[(3-p-Tolyl-1H-pyrazol-4-ylmethyl)-amino]-phenyl}-butan-1-one]
< 1000 nM | CCCC(=O)c1ccc(NCc2c[nH]nc2-c2cc(F)cc(F)c2)cc1 [Example 213, 1-(4-{[3-(3,5-Difluorophenyl)-1H-pyrazol-4-ylmethyl]-amino}-phenyl)-butan-1-one]

Compound | EC50
2-Propyl-6-{[3-(4-trifluoromethyl-phenyl)-1H-pyrazol-4-ylmethyl]-amino}-2,3-dihydro-isoquinolin-1-one [Example 584] | < 1000 nM
